Laboratory results from PMC2585076, “Development of selective blockers for Ca^2+-activated Cl^- channel using Xenopus laevis oocytes with an improved drug screening strategy” (Molecular Brain, 2008).
Read-outs that look alike come from different tables or passages of the source. Each block holds one compound with its values, some of them ahead of it.

Columns and labels:
[1] = biological target: T1, Ca^2+-activated Cl^- channel (CaCC) (Xenopus laevis, UniProt B5SVV6); conditions: endogenous CaCCs in Xenopus laevis oocytes, TEVC; read-out: IC50 * (IC50 previously studied); cited from earlier work
T1 sequence (B5SVV6 entry or part of it): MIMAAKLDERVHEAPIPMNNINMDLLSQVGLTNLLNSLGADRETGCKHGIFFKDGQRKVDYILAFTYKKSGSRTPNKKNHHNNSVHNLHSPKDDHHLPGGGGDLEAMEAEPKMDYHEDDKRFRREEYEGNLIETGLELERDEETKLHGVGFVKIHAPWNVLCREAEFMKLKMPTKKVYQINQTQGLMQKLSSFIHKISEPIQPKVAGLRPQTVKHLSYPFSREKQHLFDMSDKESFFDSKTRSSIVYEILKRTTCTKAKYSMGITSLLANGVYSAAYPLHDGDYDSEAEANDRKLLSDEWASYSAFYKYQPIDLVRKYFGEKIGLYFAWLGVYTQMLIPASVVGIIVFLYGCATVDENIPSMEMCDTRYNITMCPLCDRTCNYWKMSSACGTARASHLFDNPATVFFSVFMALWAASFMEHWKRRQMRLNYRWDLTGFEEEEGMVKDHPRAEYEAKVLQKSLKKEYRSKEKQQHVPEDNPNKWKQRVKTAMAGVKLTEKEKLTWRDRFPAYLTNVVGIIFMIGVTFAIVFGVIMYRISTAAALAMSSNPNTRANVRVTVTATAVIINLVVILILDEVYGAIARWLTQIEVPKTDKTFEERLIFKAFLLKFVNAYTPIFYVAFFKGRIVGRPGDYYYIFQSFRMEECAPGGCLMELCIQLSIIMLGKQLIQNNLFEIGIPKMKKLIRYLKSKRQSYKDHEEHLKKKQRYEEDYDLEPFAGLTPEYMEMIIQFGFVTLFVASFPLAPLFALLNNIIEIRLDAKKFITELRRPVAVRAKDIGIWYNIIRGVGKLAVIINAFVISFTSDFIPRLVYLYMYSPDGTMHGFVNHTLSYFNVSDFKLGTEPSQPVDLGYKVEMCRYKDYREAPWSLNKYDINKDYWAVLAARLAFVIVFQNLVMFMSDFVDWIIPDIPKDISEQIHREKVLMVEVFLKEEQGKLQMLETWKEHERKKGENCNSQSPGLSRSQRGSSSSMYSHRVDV

[2] = biological target: T1, Ca^2+-activated Cl^- channel (CaCC); type: cell-based; conditions: block of Cl^- current induced by 5 mM external Ca^2+, ionomycin then thapsigargin treated oocytes, chelerythrine in intracellular solution, holding potential -60 mV

Compound: O=C(O)c1ccccc1Nc1ccccc1 [DPC, diphenylamine-2-carboxylate]
IC50 [1]: 111 µM

Compound: O=C(O)c1ccccc1Nc1ccc(C(F)(F)F)cc1 [N-(4-trifluoromethylphenyl)anthranilic acid]
IC50 ([2]; read-out: IC50): 6 µM

IC50 [2]: low potency
Compound: O=C(O)c1ccccc1Nc1ccccc1[N+](=O)[O-] [N-(2-Nitrophenyl)-anthranilic acid]
